From the supplement of paper PMC13380429

What was measured:
[1] = test system: A549-ACE2 infected with SARS-CoV-2; experiment: morphology score (similarity to uninfected cells); higher = more like uninfected cells; conditions: 24 h
[2] = test system: A549-ACE2; experiment: phospholipidosis EC50; higher = less potent phospholipidosis inducer
[3] = test system: A549-ACE2 infected with SARS-CoV-2; experiment: cell count relative to DMSO; higher = less toxic; conditions: 24 h
[4] = test system: U2OS; experiment: relative viability EC50 (midpoint between 100% and the lowest measured viability); higher = less toxic; conditions: 72 h
[5] = test system: Caco-2; experiment: as above; conditions: 72 h
[6] = test system: Calu-3; experiment: as above; conditions: 72 h
[7] = test system: Vero E6; experiment: as above; conditions: 72 h
[8] = test system: U2OS; experiment: cell viability relative to DMSO; higher = less toxic; conditions: 72 h
[9] = test system: HepG2; experiment: as above; conditions: 72 h
[10] = test system: Caco-2; experiment: as above; conditions: 72 h
[11] = test system: Calu-3; experiment: as above; conditions: 72 h
[12] = test system: Vero E6; experiment: as above; conditions: 72 h
[13] = test system: U2OS; experiment: drug sensitivity score (DSS) for viability; higher = more toxic; extreme values may be limits of the assay; conditions: 72 h
[14] = test system: HepG2; experiment: as above; conditions: 72 h
[15] = test system: Caco-2; experiment: as above; conditions: 72 h
[16] = test system: Calu-3; experiment: as above; conditions: 72 h
[17] = test system: Vero E6; experiment: as above; conditions: 72 h
[18] = test system: A549-ACE2; experiment: drug-induced phospholipidosis relative to tamoxifen; higher = more phospholipidosis
[19] = test system: A549-ACE2 infected with SARS-CoV-2; experiment: SARS-CoV-2 infection rate relative to DMSO; higher = more infection; conditions: 24 h
[20] = test system: HepG2; experiment: relative viability EC50 (midpoint between 100% and the lowest measured viability); higher = less toxic; conditions: 72 h

## c1ccc(-c2nn3c(c2-c2ccnc4cc(OCCN5CCOCC5)ccc24)CCC3)nc1
[1]; 0.3 µM
  morphology score: 0.43
[1]; 3 µM
  morphology score: 0.25
[1]; 10 µM
  morphology score: 0.09
[1]; 30 µM
  morphology score: -0.11
[2]; 24 h
  phospholipidosis EC50: 15.2 µM
[2]; 72 h
  phospholipidosis EC50: 12.7 µM
[3]; 0.3 µM
  cell count: 108%
[3]; 3 µM
  cell count: 104%
[3]; 10 µM
  cell count: 96%
[3]; 30 µM
  cell count: 95%
[4]
  relative viability EC50: > 10000 nM
[5]
  relative viability EC50: > 10000 nM
[6]
  relative viability EC50: > 10 µM
[7]
  relative viability EC50: > 10000 nM
[8]; 1 nM
  cell viability: 95.4%
[8]; 10 nM
  cell viability: 105%
[8]; 100 nM
  cell viability: 91.6%
[8]; 1000 nM
  cell viability: 90.4%
[8]; 10000 nM
  cell viability: 76.5%
[9]; 1 nM
  cell viability: 103%
[9]; 10 nM
  cell viability: 100%
[9]; 100 nM
  cell viability: 96.6%
[9]; 1000 nM
  cell viability: 95.7%
[9]; 10000 nM
  cell viability: 74.7%
[10]; 1 nM
  cell viability: 94.1%
[10]; 10 nM
  cell viability: 106%
[10]; 100 nM
  cell viability: 95.8%
[10]; 1000 nM
  cell viability: 100%
[10]; 10000 nM
  cell viability: 94.6%
[11]; 1 nM
  cell viability: 102%
[11]; 10 nM
  cell viability: 86.3%
[11]; 100 nM
  cell viability: 104%
[11]; 1000 nM
  cell viability: 96%
[11]; 10000 nM
  cell viability: 101%
[12]; 1 nM
  cell viability: 102%
[12]; 10 nM
  cell viability: 99.8%
[12]; 100 nM
  cell viability: 111%
[12]; 1000 nM
  cell viability: 108%
[12]; 10000 nM
  cell viability: 105%
[13]
  drug sensitivity score: 1.5
[14]
  drug sensitivity score: 1.6
[15]
  drug sensitivity score: 0
[16]
  drug sensitivity score: 0
[17]
  drug sensitivity score: 0
[18]; 0.3 µM, 24 h
  drug-induced phospholipidosis: 7.41%
[18]; 0.3 µM, 48 h
  drug-induced phospholipidosis: 5.26%
[18]; 0.3 µM, 72 h
  drug-induced phospholipidosis: 2.76%
[18]; 0.833333 µM, 24 h
  drug-induced phospholipidosis: 15.4%
[18]; 0.833333 µM, 48 h
  drug-induced phospholipidosis: 4.41%
[18]; 0.833333 µM, 72 h
  drug-induced phospholipidosis: -1.59%
[18]; 3.33333 µM, 24 h
  drug-induced phospholipidosis: 31.7%
[18]; 3.33333 µM, 48 h
  drug-induced phospholipidosis: 16.2%
[18]; 3.33333 µM, 72 h
  drug-induced phospholipidosis: 7.52%
[18]; 6.66667 µM, 24 h
  drug-induced phospholipidosis: 44.4%
[18]; 6.66667 µM, 48 h
  drug-induced phospholipidosis: 19.5%
[18]; 6.66667 µM, 72 h
  drug-induced phospholipidosis: 15.3%
[18]; 10 µM, 24 h
  drug-induced phospholipidosis: 57.5%
[18]; 10 µM, 48 h
  drug-induced phospholipidosis: 30.1%
[18]; 10 µM, 72 h
  drug-induced phospholipidosis: 29.5%
[18]; 30 µM, 24 h
  drug-induced phospholipidosis: 78.6%
[18]; 30 µM, 48 h
  drug-induced phospholipidosis: 52.8%
[18]; 30 µM, 72 h
  drug-induced phospholipidosis: 58.6%
[19]; 0.3 µM
  SARS-CoV-2 infection rate: 82%
[19]; 3 µM
  SARS-CoV-2 infection rate: 97%
[19]; 10 µM
  SARS-CoV-2 infection rate: 108%
[19]; 30 µM
  SARS-CoV-2 infection rate: 106%

## O=Nc1ccc(O)c2ncccc12 [NSC-3852]
[1]; 0.3 µM
  morphology score: -0.15
[1]; 3 µM
  morphology score: -0.09
[1]; 10 µM
  morphology score: 0.41
[1]; 30 µM
  morphology score: 0.64
[3]; 0.3 µM
  cell count: 97%
[3]; 3 µM
  cell count: 76%
[3]; 10 µM
  cell count: 63%
[3]; 30 µM
  cell count: 41%
[4]
  relative viability EC50: 1370 nM
[20]
  relative viability EC50: 1320 nM
[5]
  relative viability EC50: 1730 nM
[7]
  relative viability EC50: 1180 nM
[8]; 1 nM
  cell viability: 93.5%
[8]; 10 nM
  cell viability: 99.5%
[8]; 100 nM
  cell viability: 96.2%
[8]; 1000 nM
  cell viability: 70.2%
[8]; 10000 nM
  cell viability: 7.2%
[9]; 1 nM
  cell viability: 103%
[9]; 10 nM
  cell viability: 89.6%
[9]; 100 nM
  cell viability: 101%
[9]; 1000 nM
  cell viability: 77.7%
[9]; 10000 nM
  cell viability: 33%
[10]; 1 nM
  cell viability: 86.2%
[10]; 10 nM
  cell viability: 101%
[10]; 100 nM
  cell viability: 98.5%
[10]; 1000 nM
  cell viability: 81.6%
[10]; 10000 nM
  cell viability: 9.2%
[12]; 1 nM
  cell viability: 99.8%
[12]; 10 nM
  cell viability: 102%
[12]; 100 nM
  cell viability: 98.4%
[12]; 1000 nM
  cell viability: 71.5%
[12]; 10000 nM
  cell viability: 30.1%
[13]
  drug sensitivity score: 9.3
[14]
  drug sensitivity score: 6.9
[15]
  drug sensitivity score: 8
[17]
  drug sensitivity score: 7.5
[18]; 0.3 µM, 24 h
  drug-induced phospholipidosis: 0.34%
[18]; 0.3 µM, 48 h
  drug-induced phospholipidosis: 3.9%
[18]; 0.3 µM, 72 h
  drug-induced phospholipidosis: 3.53%
[18]; 0.833333 µM, 24 h
  drug-induced phospholipidosis: -0.2%
[18]; 0.833333 µM, 48 h
  drug-induced phospholipidosis: 1.44%
[18]; 0.833333 µM, 72 h
  drug-induced phospholipidosis: 1.53%
[18]; 3.33333 µM, 24 h
  drug-induced phospholipidosis: 2.51%
[18]; 6.66667 µM, 24 h
  drug-induced phospholipidosis: 14.6%
[18]; 10 µM, 24 h
  drug-induced phospholipidosis: 10.9%
[19]; 0.3 µM
  SARS-CoV-2 infection rate: 106%
[19]; 3 µM
  SARS-CoV-2 infection rate: 96%
[19]; 10 µM
  SARS-CoV-2 infection rate: 48%
[19]; 30 µM
  SARS-CoV-2 infection rate: 14%
